# Assay results reported in patent US7534871B2, “Preparation and use of carbohydrate-based bicyclic ring structures with antimicrobial and cytostatic activity” (Kemin Pharma B.V.B.A., priority 2004, dated 2009).
# Read-outs that look alike come from different tables or passages of the source.
# How the values were obtained:
# [1] = test system: VRE ATCC700221; assay: Anti-bacterial activity, Bioscreen C growth curve: VRE; format: cell-based, vancomycin-resistant Enterococcus (VRE); conditions: Enterococcus, 35° C., 16 hours, negative control = 100, read-out: % of growth at 25 PPM compared to the negative control, VRE ATCC700221
# Description: (§1) For the determination of the anti-bacterial and anti-fungal activity the Bioscreen C Analyser Labsystems, Finland, was used. This is an automated reader-incubator. It measures growth continuously by vertical photometry (optical density), processes the data and provides a print out of the results. The area under the growth curve is automatically determined via the Biolink software.
# (§2) The inoculum size of the bacteria is standardized to approximately 5×10^5 CFU/ml.
# (§3) For bacteria, the 100-honey-well plates containing test chemical, Mueller-Hinton broth and inoculum (=sample) are incubated at 35° C. for 16 hours. Also wells without inoculum are incubated (=blanco). Yeasts are incubated 35° C. for 24 hours in RPMI 1640+MOPS buffer at 165 mM. Moulds also in RPMI 1640+MOPS buffer at 165 mM are incubated 25° C. for 5 days. All micro-organisms are screened against a known concentration of the reference antibiotics or antimycotics such as vancomycin, penicillin G, gentamicin or amphotericin B. The growth curve and the area under the growth curve can be determined using the Biolink software; this is illustrated in FIG. 1.
# (§4) The area of the blanco is subtracted from the area of the sample, this number (delta) gives us an indication of the biological activity of the molecules tested and can be expressed as a % of growth at a specific dose compared to a negative control that has a value of 100, illustrated in FIG. 2. Screening of each dose of a specific compound is repeated 5 times. The dose used for all new molecules in all tests is 25 PPM or 25 μg/ml.
# (§5) In Table 4 the results of the anti-bacterial activity is given for the new molecules. The micro-organisms used are Staphylococcus aureus, MRSA, VRE, Enterococcus faecalis, Salmonella typhimurium and Pseudomonas aeruginosa.
# [2] = test system: S. typhimurium ATTC700408; assay: Anti-bacterial activity, Bioscreen C growth curve: S. typhimurium; format: cell-based; conditions: Salmonella enterica, LMG16217 / TYPHIMURIUM, 35° C., 16 hours, negative control = 100, read-out: % of growth at 25 PPM compared to the negative control, S. typhimurium ATTC700408 LMG16217
# Description: as §1, §2, §3, §4, §5
# [3] = test system: Candida albicans IHEM 10284 - ATCC 24433; assay: Anti-fungal activity, Bioscreen C growth curve: Candida albicans (yeast); format: cell-based; conditions: Candida albicans, ATCC24433; 25 PPM; 35° C., 24 hours; negative control = 100; read-out: % of growth at a dose of 25 PPM compared to the negative control, Candida albicans IHEM 10284 - ATCC 24433
# Description: as §1
# The inoculum size of the yeast is standardized to 0.5-2.5×10^3 CFU/ml.
# as §3, §4
# (§6) In Table 5 the anti-fungal activity is given for the new molecules. The micro-organisms used were Candida albicans (a typical yeast) and Microsporum gypseum (a typical mold).
# as §1, with “Also for” for “For”, “the” for “the anti-bacterial and”, “Labsystems Oy, Finland” for “Labsystems, Finland,”, “used.” for “used. This is an automated reader-incubator.”
# (§7) The inoculum size of the yeast is standardized to 0.5-2.5×10^3 CFU/ml. The inoculum size of the mould is standardized to 0.4-5.0×10^4 CFU/ml. Yeasts are incubated 35° C. for 24 hours in RPMI 1640+MOPS buffer at 165 mM. Moulds also in RPMI 1640+MOPS buffer at 165 mM are incubated 25° C. for 5 days.
# (§8) As a control, all micro-organisms are screened against some reference antibiotics with known MIC. Screening of each dose of a specific compound is repeated 5 times.
# [4] = test system: CMV AD-169 strain; assay: Anti-CMV activity: plaque reduction in HEL cells, AD-169 strain; format: cell-based, human cytomegalovirus (CMV); conditions: Human betaherpesvirus 5, AD169, HEL, reduce virus plaque formation by 50%, virus input 100 PFU
# [5] = test system: E. faecalis ATTC29212 LMG 8222; assay: Anti-bacterial activity, Bioscreen C growth curve: E. faecalis; format: cell-based; conditions: Enterococcus faecalis, LMG8222, 35° C., 16 hours, negative control = 100, read-out: % of growth at 25 PPM compared to the negative control, E. faecalis ATTC29212 LMG 8222
# Description: as §1, §2, §3, §4, §5
# [6] = test system: VZV OKA; assay: microbe, parasite or virus in culture; format: cell-based, varicella zoster virus (VZV); conditions: Human alphaherpesvirus 3, HEL, read-out: EC50 VZV (HEL) OKA
# [7] = test system: murine mammary carcinoma cells (FM3A); assay: Cytostatic activity: inhibition of proliferation of FM3A cells; format: cell-based; conditions: Mus musculus, 50% inhibitory concentration, cell proliferation, read-out: IC50 FM3A/0
# Description: (§9) The compounds were tested for anti-tumor activity via the inhibitory effects on the proliferation of murine leukemia cells (L1210/0), murine mammary carcinoma cells (FM3A), human T-lymphocyte cells (Molt4/C8, CEM/0) and human cervix carcinoma cells (HeLa).
# [8] = test system: VV; assay: microbe, parasite or virus in culture; format: cell-based; conditions: Orthopoxvirus vaccinia, E6SM, read-out: EC50 VV (E6SM)
# [9] = test system: HIV-2 (ROD); assay: Anti-viral activity: HIV-2-induced cytopathicity in human CEM cell cultures; format: cell-based; conditions: Human immunodeficiency virus 2, CCRF-CEM; concentration required to inhibit HIV-induced cytopathicity in human CEM cell cultures by 50%
# [10] = test system: P. aeruginosa ATCC27853 LMG16217; assay: Anti-bacterial activity, Bioscreen C growth curve: P. aeruginosa; format: cell-based, Pseudomonas aeruginosa; conditions: Pseudomonas aeruginosa; 25 PPM; 35° C., 16 hours; negative control = 100; read-out: % of growth at 25 PPM compared to the negative control, P. aeruginosa ATCC27853 LMG16217
# Description: as §1, §2, §3, §4, §5
# [11] = test system: human T-lymphocyte cells (CEM/0); assay: Cytostatic activity: inhibition of proliferation of CEM/0 cells; format: cell-based; conditions: CCRF-CEM, 50% inhibitory concentration, cell proliferation, read-out: IC50 CEM/0
# Description: as §9
# [12] = test system: VZV YS; assay: Anti-viral activity: VZV-induced plaque formation in HEL cell cultures, YS strain; format: cell-based, varicella zoster virus (VZV); conditions: Human alphaherpesvirus 3, VZV-induced plaque formation in human embryonic lung HEL cell cultures, 50%
# [13] = test system: MRSA ATCC33591; assay: Anti-bacterial activity, Bioscreen C growth curve: MRSA; format: cell-based, methicillin-resistant Staphylococcus aureus (MRSA); conditions: Staphylococcus aureus, ATCC 33591 / LMG10147 / MRSA; 25 PPM; 35° C., 16 hours; negative control = 100; read-out: % of growth at 25 PPM compared to the negative control, MRSA ATCC33591 LMG10147
# Description: as §1, §2, §3, §4, §5
# [14] = test system: human cervix carcinoma cells (HeLa); assay: Cytostatic activity: inhibition of proliferation of HeLa cells; format: cell-based; conditions: 50% inhibitory concentration, cell proliferation
# Description: as §9
# [15] = test system: HSV-1 (KOS); assay: Anti-viral activity: HSV-1-induced cytopathicity in human embryo fibroblast E6SM cell cultures; format: cell-based, herpes simplex virus (HSV); conditions: Human alphaherpesvirus 1, 50%
# [16] = test system: HIV-1 (IIIB); assay: microbe, parasite or virus in culture; format: cell-based; conditions: Human immunodeficiency virus 1, IIIB, CCRF-CEM; concentration required to inhibit HIV-induced cytopathicity in human CEM cell cultures by 50%
# [17] = test system: murine leukemia cells (L1210/0); assay: Cytostatic activity: inhibition of proliferation of L1210/0 cells; format: cell-based; conditions: Mus musculus, L1210/0; 50% inhibitory concentration, cell proliferation; read-out: IC50 L1210/0
# Description: as §9
# [18] = test system: Microsporum gypseum IHEM 3999 - ATCC 14683; assay: Anti-fungal activity, Bioscreen C growth curve: Microsporum gypseum (mold); format: cell-based; conditions: Nannizzia gypsea, ATCC14683, 120 h; 25 PPM; 25° C., 5 days; negative control = 100; read-out: % of growth at a dose of 25 PPM compared to the negative control, Microsporum gypseum IHEM 3999 - ATCC 14683
# Description: as §1
# The inoculum size of the mould is standardized to 0.4-5.0×10^4 CFU/ml.
# as §3, §4, §6
# as §1, with “Also for” for “For”, “the” for “the anti-bacterial and”, “Labsystems Oy, Finland” for “Labsystems, Finland,”, “used.” for “used. This is an automated reader-incubator.”
# as §7, §8
# [19] = test system: S. aureus ATTC29213 LMG10147; assay: Anti-bacterial activity, Bioscreen C growth curve: S. aureus; format: cell-based; conditions: Staphylococcus aureus, 35° C., 16 hours, negative control = 100, read-out: % of growth at 25 PPM compared to the negative control, S. aureus ATTC29213 LMG10147
# Description: as §1, §2, §3, §4, §5
# [20] = test system: human T-lymphocyte cells (Molt4/C8); assay: Cytostatic activity: inhibition of proliferation of Molt4/C8 cells; format: cell-based; conditions: Molt4/C8, 50% inhibitory concentration, cell proliferation, read-out: IC50 Molt4/C8
# Description: as §9
# [21] = test system: HSV-2 (G); assay: Anti-viral activity: HSV-2-induced cytopathicity in human embryo fibroblast E6SM cell cultures; format: cell-based, herpes simplex virus (HSV); conditions: Human alphaherpesvirus 2, 50%
# [22] = test system: HEL cells; assay: Cytotoxicity: alteration of cell morphology (MCC); format: cell-based, human; conditions: minimum cytotoxic concentration that causes a microscopically detectable alteration of cell morphology
# [23] = Cytotoxicity: inhibition of HEL cell growth (CC50); format: cell-based; conditions: human; concentration required to reduce cell growth by 50%; HEL cells, three days
# Description: The medium was then replaced by MEM containing various concentrations of the test compound. After three days incubation at 37° C., when the cell monolayer was 70% confluent, the cell number was determined with the Coulter counter. The minimum cytotoxic concentration was defined as the concentration required to reduce cell growth by 50%.
# [24] = test system: CMV Davis strain; assay: Anti-CMV activity: plaque reduction in HEL cells, Davis strain; format: cell-based, human cytomegalovirus (CMV); conditions: Human betaherpesvirus 5, HEL; Table 6; reduce virus plaque formation by 50%; virus input 100 PFU; read-out: Anti-CMV activity IC50 Davis strain
# [25] = Table 2, read-out: IC50 CMV AD-169 Strain
Structure (SMILES),activity at 25 ppm [1],activity at 25 ppm [2],activity at 25 ppm [3],"IC50 [4, 25]",activity at 25 ppm [5],EC50 [6],IC50 [7],EC50 [8],EC50 [9],activity at 25 ppm [10],IC50 [11],EC50 [12],activity at 25 ppm [13],IC50 [14],EC50 [15],EC50 [16],IC50 [17],activity at 25 ppm [18],IC50 [20],EC50 [21],also measured
CO[C@@H]1[C@@H](OC)[C@H](Sc2ccccc2)O[C@@H]2COCC=CCO[C@@H]12 [KPE00001014],88.4%,87.2%,96%,> 50 µg/mL,95%,> 50 µg/mL,> 200 µg/mL,> 400 µg/mL,> 100 µg/mL,96.7%,> 200 µg/mL,> 50 µg/mL,113%,> 200 µg/mL,> 400 µg/mL,> 100 µg/mL,> 200 µg/mL,69%,> 200 µg/mL,240 µg/mL,activity at 25 ppm [19]: 105%
CO[C@@H]1[C@@H](OC)[C@H](Sc2ccccc2)O[C@@H]2COC(=O)CC/C=C/CCC(=O)O[C@@H]12 [KPE00001002],94%,93.7%,105%,> 20 µg/mL,94.9%,> 20 µg/mL,> 200 µg/mL,> 16 µg/mL,> 20 µg/mL,92.2%,> 200 µg/mL,> 50 µg/mL,100%,> 200 µg/mL,> 16 µg/mL,> 100 µg/mL,> 200 µg/mL,64%,> 200 µg/mL,> 16 µg/mL,activity at 25 ppm [19]: 93.2%
c1ccc(CO[C@@H]2[C@@H](OCc3ccccc3)[C@H](Sc3ccccc3)O[C@@H]3CO[C@@H](c4ccccc4)O[C@@H]23)cc1 [KPE00001044],,,,,,> 2 µg/mL,130 ± 61 µg/mL,> 3.2 µg/mL,,,> 200 µg/mL,> 2 µg/mL,,,> 3.2 µg/mL,,> 200 µg/mL,,> 200 µg/mL,> 3.2 µg/mL,"IC50 ([4]; Table 6, read-out: Anti-CMV activity IC50 AD-169 strain): > 2 µg/mL; Cytotoxicity Cell morphology (MCC) [22]: 5 μg/ml; CC50 at 3 days [23]: > 50 µg/mL; IC50 [24]: > 2 µg/mL"
